Assay results as given in patent US20250051260A1, “METHOD FOR PREPARING 4-NITRO-2-(TRIFLUOROMETHYL)ACETOPHENONE AND APPLICATION THEREOF” (MAXUNITECH INC., priority 2022, published 2025).

Key:
Test in all cases: Petri dish test for herbicide bioactivity (NY/T 1155.1-2006)
Format in all cases: in vivo
Conditions in all cases: 7 days after treatment
[1] = tested on: Panicum acroanthum Steud.
From the text: (§1) Test standard:NY/T 1155.1-2006 Pesticides guidelines for laboratory bioactivity tests. Part 1:Petri dish test for herbicide bioactivity
(§2) Targets: Echinochloa crusgalli (L.) Beauv, Panicum acroanthum Steud., Solanum nigrum L., Chenopodium album L.
(§3) Test agent:ethyl 2-(4-nitro-2-trifluoromethylphenyl)-2-cyanopropanoate prepared in Example 1
(§4) The test agent was weighed and dissolved in DMF to obtain a mother liquor. different amounts of mother liquor were weighed and diluted into water to prepare different doses of the test agent.
(§5) Test method:Petri dish test
(§6) 1 test agent, 1 CK (clean water control), 4 targets, and 2 replicate tests per treatment were required. Test method includes the following steps:putting two filter papers on a Petri dish with a diameter of 9 cm; adding 8 mL of the prepared test agent of different concentrations; putting 10 uniform weed seeds; and then placing in an incubator (30° C./25° C., light for 12 h/for dark 12 h). After treatment, the growth state of the test target was regularly observed, the comprehensive growth inhibition rate of each agent was visually investigated with CK about 7 days after the treatment, and the number of seedlings, stem length and root length of plants were measured, and the mergence rate, stem length, and root length and inhibition rate were calculated compared with CK.

Chenopodium album L. = tested on: Chenopodium album L.
From the text: as §1, §2, §3, §4, §5, §6

[2] = tested on: Echinochloa crusgalli (L.) Beauv
From the text: as §1, §2, §3, §4, §5, §6

Solanum nigrum L. = tested on: Solanum nigrum L.
From the text: as §1, §2, §3, §4, §5, §6

CCOC(=O)C(C)(C#N)c1ccc([N+](=O)[O-])cc1C(F)(F)F (stereo not drawn) [ethyl 2-(4-nitro-2-trifluoromethylphenyl)-2-cyanopropanoate]
Emergence rate, inhibition rate ([1]; agent concentration 500): 100.0%
Root length, inhibition rate ([1]; agent concentration 500): 100.0%
Stem length, inhibition rate ([1]; agent concentration 500): 100.0%
Emergence rate, inhibition rate ([1]; agent concentration 1000): 100.0%
Root length, inhibition rate ([1]; agent concentration 1000): 100.0%
Stem length, inhibition rate ([1]; agent concentration 1000): 100.0%
Emergence rate, inhibition rate (Chenopodium album L.; agent concentration 100): 63.6%
Root length, inhibition rate (Chenopodium album L.; agent concentration 100): 100.0%
Stem length, inhibition rate (Chenopodium album L.; agent concentration 100): 70.4%
Emergence rate, inhibition rate (Chenopodium album L.; agent concentration 500): 100.0%
Root length, inhibition rate (Chenopodium album L.; agent concentration 500): 100.0%
Stem length, inhibition rate (Chenopodium album L.; agent concentration 500): 100.0%
Emergence rate, inhibition rate (Chenopodium album L.; agent concentration 1000): 100.0%
Root length, inhibition rate (Chenopodium album L.; agent concentration 1000): 100.0%
Stem length, inhibition rate (Chenopodium album L.; agent concentration 1000): 100.0%
Emergence rate, inhibition rate ([2]; agent concentration 500): 100.0%
Root length, inhibition rate ([2]; agent concentration 500): 100.0%
Stem length, inhibition rate ([2]; agent concentration 500): 100.0%
Emergence rate, inhibition rate ([2]; agent concentration 1000): 100.0%
Root length, inhibition rate ([2]; agent concentration 1000): 100.0%
Stem length, inhibition rate ([2]; agent concentration 1000): 100.0%
Emergence rate, inhibition rate (Solanum nigrum L.; agent concentration 500): 100.0%
Root length, inhibition rate (Solanum nigrum L.; agent concentration 500): 100.0%
Stem length, inhibition rate (Solanum nigrum L.; agent concentration 500): 100.0%
Emergence rate, inhibition rate (Solanum nigrum L.; agent concentration 1000): 100.0%
Root length, inhibition rate (Solanum nigrum L.; agent concentration 1000): 100.0%
Stem length, inhibition rate (Solanum nigrum L.; agent concentration 1000): 100.0%
